Experimental data as given in patent US20240186515A1, “ELECTROLYTE SOLUTION FOR REDOX FLOW BATTERY INCLUDING ORGANIC ACTIVE MATERIAL AND REDOX FLOW BATTERY USING THE SAME” (priority 2022, published 2024).

Experiment: Cyclic voltammetry of electrolyte solution
Type: physicochemical
Conditions: for Number of reaction electrons: reversibly usable electrons
Source text: For analysis of electrochemical properties of an electrolyte solution, cyclic voltammetry (CV) was used. The cyclic voltammetry is an electrochemical measurement method which is commonly used a lot, and is a method of obtaining a current-potential curve by scanning an electrode potential of a working electrode with a triangular wave at a constant speed. A method of recording a current flowing when potential is changed in proportion to time as a potential-current curve is called a potential sweep method, and when the potential is repeatedly applied, it is called cyclic voltammetry. The cyclic voltammetry allows qualitative understanding of a reaction occurring on an electrode surface such as potential at the reaction occurs, reaction speed, and reactivity of a reaction product, and is widely used in the electrochemical field.
During cyclic voltammetry measurement, a potential scanning speed was applied at 10 to 300 mV/s, and the measurement results are shown in FIGS. 1 to 3.

[1] = 0.01 M in 1 M Na2SO4, glassy carbon working electrode

In the case of `C[N+](C)(C)CCC[n+]1ccc(-c2cc[n+](-c3cc(O)ccc3O)cc2)cc1` [Example 1], the “Negative electrode one-electron reaction potential” value [1] is reported as −0.48 V vs. NHE, the “Negative electrode two-electron reaction potential” value [1] is reported as −0.80 V vs. NHE and the “Positive electrode reaction potential” value [1] is reported as 0.46 V vs. NHE. The “Reversibility of second electron (two-electron) reaction in negative electrode area” value (from here on “Reversibility of second electron”) (cyclic voltammetry curves) was “showed a reversible shape”, the “Reversibility in positive electrode area” value (cyclic voltammetry curves, 100 mV s^−1, FIG. 3) was “reversible behavior was shown” and the “Number of reaction electrons” value was 2.

For `C[n+]1ccc(-c2cc[n+](C)cc2)cc1.O.[Cl-].[Cl-]` [Comparative Example 1, methyl viologen dichloride hydrate], the “Negative electrode one-electron reaction potential” value [1] was −0.54 V vs. NHE, the “Reduction and oxidation currents, negative electrode area, first electron reaction” value (FIG. 1, text) was “around −0.54 V” and the “Reduction and oxidation currents, negative electrode area, second electron reaction” value (FIG. 1, text) was about −0.75 V. The “Reversibility of second electron” value (cyclic voltammetry curves) was “irreversible”.

In the case of `C[n+]1ccc(-c2cc[n+](-c3cc(O)ccc3O)cc2)cc1` [Comparative Example 2], the “Negative electrode one-electron reaction potential” value [1] is reported as −0.34 V vs. NHE, the “Positive electrode reaction potential” value [1] is reported as 0.59 V vs. NHE and the “Reduction and oxidation currents, negative electrode area, first electron reaction” value (FIG. 1, text) is reported as “around −0.34 V”. For the same compound, the “Reduction and oxidation currents, negative electrode area, second electron reaction” value (FIG. 1, text) was about −0.65 V, the “Two-electron reduction and oxidation currents derived from hydroquinone, positive electrode area” value (FIG. 1, text) was 0.59 V and the “Reversibility of second electron” value (cyclic voltammetry curves) was “did not reach a target level”. For the same compound, the “Number of reaction electrons” value was 1.
